In assay [1] the target is 3-phosphoinositide-dependent protein kinase 1 (Homo sapiens) (UniProt O15530). Kind of assay: Inhibition of His-tagged human PDK1 expressed in Sf21 cells at 1 uM. Conditions: values are per cent of control.
Assay [2] has as its target T1, Serine/threonine-protein kinase Chk1 (Homo sapiens) (UniProt O14757).
T1 sequence (whole entry): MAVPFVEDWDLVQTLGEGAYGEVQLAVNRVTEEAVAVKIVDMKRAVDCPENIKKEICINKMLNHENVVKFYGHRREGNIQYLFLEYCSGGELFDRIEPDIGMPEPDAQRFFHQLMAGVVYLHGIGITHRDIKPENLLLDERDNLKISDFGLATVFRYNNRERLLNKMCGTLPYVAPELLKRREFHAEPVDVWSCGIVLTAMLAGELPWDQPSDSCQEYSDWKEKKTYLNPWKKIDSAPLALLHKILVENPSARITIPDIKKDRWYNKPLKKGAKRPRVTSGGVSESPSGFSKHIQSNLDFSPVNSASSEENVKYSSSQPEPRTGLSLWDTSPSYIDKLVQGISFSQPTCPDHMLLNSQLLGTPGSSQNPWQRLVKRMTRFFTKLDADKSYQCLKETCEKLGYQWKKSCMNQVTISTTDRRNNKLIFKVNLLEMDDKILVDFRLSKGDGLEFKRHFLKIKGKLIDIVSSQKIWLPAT
In words: Inhibition of His-tagged human CHK1 expressed in Escherichia coli at 1 uM; values are per cent of control.

For assay [3], the target named is MAP kinase-activated protein kinase 2 (Homo sapiens, UniProt P49137). In words: Inhibition of His-tagged human MAPKAPK2 expressed in Escherichia coli at 1 uM; values are per cent of control.
For assay [4], the target named is Mitogen-activated protein kinase 14 (Homo sapiens) (UniProt Q16539). Kind of assay: Inhibition of His-tagged human SAPK2a/p38 expressed in Escherichia coli at 1 uM; values are per cent of control.
A further assay is filed under the species Oryctolagus cuniculus. In words: Inhibition of MAPKAPK1b from rabbit skeletal muscle at 20 uM; values are per cent of control. Conditions: Muscle tissue.
In assay [5] the target is RAC-alpha serine/threonine-protein kinase (Homo sapiens) (UniProt P31749). In words: Inhibition of human PKBalpha expressed in SF9 cells at 20 uM; values are per cent of control.
The target of assay [6] is T2, Serine/threonine-protein kinase Sgk1 (Homo sapiens) (UniProt O00141).
T2 sequence (whole entry): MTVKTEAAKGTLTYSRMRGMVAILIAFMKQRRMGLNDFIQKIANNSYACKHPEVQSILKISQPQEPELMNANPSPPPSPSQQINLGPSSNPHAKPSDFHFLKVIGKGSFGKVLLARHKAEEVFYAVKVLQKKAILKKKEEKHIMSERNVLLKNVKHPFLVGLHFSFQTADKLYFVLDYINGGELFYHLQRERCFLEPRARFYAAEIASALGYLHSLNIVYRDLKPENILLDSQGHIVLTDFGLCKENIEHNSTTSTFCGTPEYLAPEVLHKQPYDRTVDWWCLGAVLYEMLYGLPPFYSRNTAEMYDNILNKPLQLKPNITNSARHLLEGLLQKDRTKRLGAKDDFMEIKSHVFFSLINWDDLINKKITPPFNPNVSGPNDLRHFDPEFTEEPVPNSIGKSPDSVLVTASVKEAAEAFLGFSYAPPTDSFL
Kind of assay: Inhibition of His-tagged human SGK expressed in Sf9 cells at 20 uM; values are per cent of control.

The target of assay [7] is T3, MAP kinase-activated protein kinase 5 (Homo sapiens) (UniProt Q8IW41).
T3 sequence (whole entry): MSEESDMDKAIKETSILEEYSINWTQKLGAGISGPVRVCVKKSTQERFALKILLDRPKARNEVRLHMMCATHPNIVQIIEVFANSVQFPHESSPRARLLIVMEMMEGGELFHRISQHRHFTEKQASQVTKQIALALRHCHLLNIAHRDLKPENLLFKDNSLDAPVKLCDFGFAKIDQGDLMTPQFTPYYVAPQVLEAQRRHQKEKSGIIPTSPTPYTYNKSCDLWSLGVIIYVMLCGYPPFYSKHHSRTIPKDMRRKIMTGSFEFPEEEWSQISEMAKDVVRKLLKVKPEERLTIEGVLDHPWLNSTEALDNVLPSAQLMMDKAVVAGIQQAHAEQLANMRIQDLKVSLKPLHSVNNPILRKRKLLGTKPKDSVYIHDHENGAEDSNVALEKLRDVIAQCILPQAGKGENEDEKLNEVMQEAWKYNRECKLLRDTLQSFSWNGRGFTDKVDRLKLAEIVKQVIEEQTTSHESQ
In words: Inhibition of His-tagged human PRAK expressed in Sf9 cells at 20 uM; values are per cent of control.

Assay [8] has as its target 3-phosphoinositide-dependent protein kinase 1 (Homo sapiens) (UniProt O15530). In words: Inhibition of His-tagged human PDK1 expressed in Sf21 cells at 20 uM; values are per cent of control.
For assay [9], the target named is Glycogen synthase kinase-3 beta (Homo sapiens, UniProt P49841). In words: Inhibition of His-tagged human GSK3b expressed in Sf21 cells at 20 uM; values are per cent of control.
The target in assay [10] is Protein kinase C alpha type (Homo sapiens, UniProt P17252). Kind of assay: Inhibition of His-tagged human PKCalpha expressed in Escherichia coli at 20 uM; values are per cent of control.
Assay [11] has as its target Mitogen-activated protein kinase 8 (Homo sapiens) (UniProt P45983). In words: Inhibition of His-tagged human JNK1a1/SAPK1c expressed in Escherichia coli at 20 uM; values are per cent of control.
The target in assay [12] is T4, Mitogen-activated protein kinase 12 (Homo sapiens) (UniProt P53778).
T4 sequence (whole entry): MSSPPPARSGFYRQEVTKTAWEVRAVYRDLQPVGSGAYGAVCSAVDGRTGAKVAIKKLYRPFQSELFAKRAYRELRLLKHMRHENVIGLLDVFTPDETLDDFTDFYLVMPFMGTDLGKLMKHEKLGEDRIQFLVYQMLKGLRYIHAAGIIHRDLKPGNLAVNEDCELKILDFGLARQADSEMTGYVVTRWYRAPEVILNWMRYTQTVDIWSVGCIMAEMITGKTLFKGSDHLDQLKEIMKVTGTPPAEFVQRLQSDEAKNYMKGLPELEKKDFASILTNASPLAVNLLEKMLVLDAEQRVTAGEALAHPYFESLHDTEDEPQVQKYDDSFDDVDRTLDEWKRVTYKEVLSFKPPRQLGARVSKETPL
Kind of assay: Inhibition of His-tagged human SAPK3/p38gamma expressed in Escherichia coli at 20 uM; values are per cent of control.

3-phosphoinositide-dependent protein kinase 1 (Homo sapiens), sequence (O15530 whole entry, looked up): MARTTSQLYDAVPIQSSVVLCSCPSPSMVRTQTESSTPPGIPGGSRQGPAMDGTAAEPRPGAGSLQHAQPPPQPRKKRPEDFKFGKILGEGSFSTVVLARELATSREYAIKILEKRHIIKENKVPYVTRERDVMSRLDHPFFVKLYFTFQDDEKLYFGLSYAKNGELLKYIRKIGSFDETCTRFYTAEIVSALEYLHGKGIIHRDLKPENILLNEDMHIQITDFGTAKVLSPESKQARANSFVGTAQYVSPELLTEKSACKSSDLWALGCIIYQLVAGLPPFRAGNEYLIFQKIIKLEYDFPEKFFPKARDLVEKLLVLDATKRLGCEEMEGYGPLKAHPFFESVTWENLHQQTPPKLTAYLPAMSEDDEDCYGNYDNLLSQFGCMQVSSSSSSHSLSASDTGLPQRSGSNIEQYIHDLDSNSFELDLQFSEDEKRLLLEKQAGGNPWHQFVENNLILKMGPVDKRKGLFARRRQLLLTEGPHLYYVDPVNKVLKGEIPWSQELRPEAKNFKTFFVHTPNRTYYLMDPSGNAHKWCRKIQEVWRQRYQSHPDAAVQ
Mitogen-activated protein kinase 14 (Homo sapiens), sequence (Q16539 whole entry): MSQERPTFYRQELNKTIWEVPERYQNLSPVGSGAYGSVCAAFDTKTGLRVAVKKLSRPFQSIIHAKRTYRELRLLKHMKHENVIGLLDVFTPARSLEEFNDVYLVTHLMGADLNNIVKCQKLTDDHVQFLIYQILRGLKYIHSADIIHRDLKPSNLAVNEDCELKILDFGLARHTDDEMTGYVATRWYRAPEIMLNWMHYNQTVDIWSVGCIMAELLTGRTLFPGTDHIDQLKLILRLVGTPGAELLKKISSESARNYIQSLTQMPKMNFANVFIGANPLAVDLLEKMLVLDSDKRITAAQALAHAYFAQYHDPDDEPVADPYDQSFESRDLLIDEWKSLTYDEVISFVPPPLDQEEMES
MAP kinase-activated protein kinase 2, sequence (P49137 whole entry, looked up): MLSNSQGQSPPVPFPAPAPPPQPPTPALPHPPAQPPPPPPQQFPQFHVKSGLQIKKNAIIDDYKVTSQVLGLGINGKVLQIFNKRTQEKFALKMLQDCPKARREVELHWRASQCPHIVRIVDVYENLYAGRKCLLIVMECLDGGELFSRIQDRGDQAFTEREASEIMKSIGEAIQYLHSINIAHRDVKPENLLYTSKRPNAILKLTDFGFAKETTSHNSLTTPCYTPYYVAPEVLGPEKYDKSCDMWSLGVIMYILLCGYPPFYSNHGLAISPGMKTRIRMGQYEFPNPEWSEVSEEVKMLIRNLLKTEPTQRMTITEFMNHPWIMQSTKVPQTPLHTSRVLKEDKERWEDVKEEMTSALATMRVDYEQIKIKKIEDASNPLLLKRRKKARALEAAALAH
Glycogen synthase kinase-3 beta, sequence (P49841 whole entry, looked up): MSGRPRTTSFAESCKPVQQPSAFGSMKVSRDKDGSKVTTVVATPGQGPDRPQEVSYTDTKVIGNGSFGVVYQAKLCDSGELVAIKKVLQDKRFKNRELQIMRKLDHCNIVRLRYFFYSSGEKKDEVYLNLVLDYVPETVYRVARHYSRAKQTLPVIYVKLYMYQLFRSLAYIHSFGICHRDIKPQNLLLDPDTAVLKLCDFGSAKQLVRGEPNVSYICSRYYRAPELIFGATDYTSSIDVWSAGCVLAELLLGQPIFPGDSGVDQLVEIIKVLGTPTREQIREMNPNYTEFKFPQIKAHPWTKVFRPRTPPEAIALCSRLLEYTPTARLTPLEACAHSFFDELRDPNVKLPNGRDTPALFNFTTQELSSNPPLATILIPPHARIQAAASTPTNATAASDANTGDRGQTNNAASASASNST
Mitogen-activated protein kinase 8 (Homo sapiens), sequence (P45983 whole entry): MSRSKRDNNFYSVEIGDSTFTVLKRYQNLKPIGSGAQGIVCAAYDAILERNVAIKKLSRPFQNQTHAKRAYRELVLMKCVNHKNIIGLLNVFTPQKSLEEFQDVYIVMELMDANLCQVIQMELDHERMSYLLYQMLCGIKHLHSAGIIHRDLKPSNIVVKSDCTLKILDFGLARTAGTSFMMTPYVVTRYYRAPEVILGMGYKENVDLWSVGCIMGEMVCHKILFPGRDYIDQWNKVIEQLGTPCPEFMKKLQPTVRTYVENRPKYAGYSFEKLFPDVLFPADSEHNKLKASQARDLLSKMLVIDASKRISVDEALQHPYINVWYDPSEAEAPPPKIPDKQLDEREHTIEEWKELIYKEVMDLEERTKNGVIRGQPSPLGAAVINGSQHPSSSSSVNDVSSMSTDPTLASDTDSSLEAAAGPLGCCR
RAC-alpha serine/threonine-protein kinase (Homo sapiens), sequence (P31749 whole entry): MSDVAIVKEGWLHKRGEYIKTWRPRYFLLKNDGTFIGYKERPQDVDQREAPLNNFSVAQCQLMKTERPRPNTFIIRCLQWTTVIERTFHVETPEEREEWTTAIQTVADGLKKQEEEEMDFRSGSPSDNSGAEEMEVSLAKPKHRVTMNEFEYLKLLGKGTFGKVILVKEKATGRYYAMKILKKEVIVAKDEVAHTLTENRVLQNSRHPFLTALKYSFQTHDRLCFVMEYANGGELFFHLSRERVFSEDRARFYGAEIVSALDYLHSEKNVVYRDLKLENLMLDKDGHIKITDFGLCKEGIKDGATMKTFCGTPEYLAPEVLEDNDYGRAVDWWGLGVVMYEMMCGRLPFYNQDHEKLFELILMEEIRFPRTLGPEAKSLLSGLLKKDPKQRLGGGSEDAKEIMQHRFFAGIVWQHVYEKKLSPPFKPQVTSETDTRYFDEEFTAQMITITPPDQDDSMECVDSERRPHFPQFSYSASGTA

With `O=C1NC(=O)C(c2c[nH]c3ccccc23)=C1c1c[nH]c2ccccc12`, the residual activity worked out at 95% in assay [1], 91% in assay [2], 113% in assay [3] and 90% in [4].
In the same order, the values of `NCCCn1cc(C2=C(c3c[nH]c4ccccc34)C(=O)NC2=O)c2ccccc21` are 69%, 40%, 97% and 104%.
With `COC[C@H]1OC(=O)c2coc3c2[C@@]1(C)C1=C(C3=O)[C@@H]2CCC(=O)[C@@]2(C)C[C@H]1OC(C)=O` [WORTMANNIN], the residual activity in [1] came out at 88%; in [2], 99%; in assay [3], 102%; in assay [4], 86%.
Regarding `O=c1c(O)c(-c2ccc(O)c(O)c2)oc2cc(O)cc(O)c12`, the level, % of control in the assay listed under Oryctolagus cuniculus was 20%. For the same compound, the residual activity in assay [5] was 99%; in [6], 35%; in [7] it was 51%; in [8], 81%; in assay [9], 30%; in [10], 70%. Also, the residual activity came out at 101% in assay [11] and 132% in assay [12].
For the compound `CO[C@H]1C[C@@H]2CC[C@@H](C)[C@@](O)(O2)C(=O)C(=O)N2CCCC[C@H]2C(=O)O[C@H]([C@H](C)C[C@@H]2CC[C@@H](O)[C@H](OC)C2)CC(=O)[C@H](C)/C=C(\C)[C@@H](O)[C@@H](OC)C(=O)[C@H](C)C[C@H](C)/C=C/C=C/C=C/1C`, the residual activity is 110% in [1], 102% in assay [2], 125% in assay [3] and 93% in assay [4].
Regarding `Cn1cc(C2=C(c3cn(CCCN)c4ccccc34)C(=O)NC2=O)c2ccccc21`, the residual activity stood at 107% in assay [1], 71% in assay [2], 104% in assay [3] and 115% in [4].
In the same order, the values of `CN1C(=O)C(c2c[nH]c3ccccc23)=C(c2c[nH]c3ccccc23)C1=O` are 109%, 104%, 124% and 101%.
On to `CC(=O)c1c(O)c(C)c(O)c(Cc2c(O)c3c(c(C(=O)/C=C/c4ccccc4)c2O)OC(C)(C)C=C3)c1O` [ROTTLERIN], for which the level, % of control in the assay filed under Oryctolagus cuniculus is 79%. Further, the residual activity in assay [5] is 27%; in assay [6], 81%; in [7], 6%; in [8], 36%; in assay [9] it was 13%; in assay [10], 95%. Further, the residual activity was determined as 49% in [11] and 146% in assay [12].
With `Cn1cc(C2=C(c3c4n(c5ccccc35)CCC(CN)C4)C(=O)NC2=O)c2ccccc21` (stereo not given), the residual activity in [1] came to 122%; in [2], 50%; in [3], 105%; in assay [4] it was 117%.
For `Cn1cc(C2=C(c3cn(CCCSC(=N)N)c4ccccc34)C(=O)NC2=O)c2ccccc21` [BISINDOLYLMALEIMIDE IX], in that order: 84%, 42%, 103% and 84%.

Source of the values: ChEMBL document CHEMBL1240295, “Specificity and mechanism of action of some commonly used protein kinase inhibitors” (Biochem J, 2000).
